Test results from ChEMBL document CHEMBL4325862, “Identification of novel quinazoline derivatives as potent antiplasmodial agents” (Eur J Med Chem, 2019).
pEC50, pIC50: −log10 of the molar value. Activity calls are given as the source filed them. The calls are words filed in the database; no cut-off is given here.

Columns and labels:
Plasmodium falciparum [1] = experiment: Antiplasmodial activity against asynchronous form of Plasmodium falciparum 3D7 infected in human erythrocytes assessed as parasite growth inhibition after 48 hrs by SYBR green1 staining based flow cytometry; assay type: functional, organism-based; conditions: 3D7, 48 h
[2] = molecular target: T1, DNA (cytosine-5)-methyltransferase 3A (Homo sapiens, UniProt Q9Y6K1); experiment: Inhibition of recombinant human DNMT3a C-terminal catalytic domain (623 to 908 residues) at 10 uM using 5'-biotinylated/3'-FAM-oligonucleotide as substrate measured after 1 hr in presence of Adomet by fluorescence assay relative to control
T1 sequence (Q9Y6K1 whole entry, looked up, the tested form may be a part): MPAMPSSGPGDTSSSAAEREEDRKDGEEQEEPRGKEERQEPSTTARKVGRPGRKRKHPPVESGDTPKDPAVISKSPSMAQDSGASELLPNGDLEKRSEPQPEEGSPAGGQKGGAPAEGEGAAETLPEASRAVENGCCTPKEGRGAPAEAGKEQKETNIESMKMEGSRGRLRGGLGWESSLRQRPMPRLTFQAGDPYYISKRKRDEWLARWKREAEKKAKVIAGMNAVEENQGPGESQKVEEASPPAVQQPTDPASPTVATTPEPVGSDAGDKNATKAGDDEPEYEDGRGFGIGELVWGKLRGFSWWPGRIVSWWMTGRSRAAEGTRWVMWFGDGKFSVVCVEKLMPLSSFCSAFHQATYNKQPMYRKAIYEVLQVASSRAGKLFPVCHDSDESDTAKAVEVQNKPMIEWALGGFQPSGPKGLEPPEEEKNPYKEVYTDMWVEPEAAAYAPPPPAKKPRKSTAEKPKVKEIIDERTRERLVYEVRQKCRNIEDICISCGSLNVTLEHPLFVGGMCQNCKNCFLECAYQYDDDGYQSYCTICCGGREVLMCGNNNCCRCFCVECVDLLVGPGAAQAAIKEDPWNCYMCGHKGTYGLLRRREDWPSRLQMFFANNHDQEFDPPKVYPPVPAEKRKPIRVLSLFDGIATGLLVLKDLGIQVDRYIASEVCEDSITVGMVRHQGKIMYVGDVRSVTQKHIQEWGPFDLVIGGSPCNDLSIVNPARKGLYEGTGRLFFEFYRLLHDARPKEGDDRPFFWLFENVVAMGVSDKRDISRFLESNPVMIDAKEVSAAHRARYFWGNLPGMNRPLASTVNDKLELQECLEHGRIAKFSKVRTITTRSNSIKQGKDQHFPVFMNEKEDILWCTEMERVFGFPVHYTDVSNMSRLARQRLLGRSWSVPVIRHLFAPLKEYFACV

Plasmodium falciparum [3] = experiment: Antiplasmodial activity against asynchronous form of Plasmodium falciparum 3D7 infected in human erythrocytes assessed as parasite growth inhibition at 10 uM after 48 hrs by SYBR green1 staining based flow cytometry relative to control; assay type: functional; conditions: 3D7, 48 h
Plasmodium berghei [4] = experiment: Antimalarial activity against Plasmodium berghei ANKA infected in BALB/c mouse assessed as reduction in parasitemia at 10 mg/kg, po administered once daily for 4 days by Giemsa-staining based microscopic analysis; assay type: functional, organism-based
Plasmodium berghei [5] = experiment: Antimalarial activity against Plasmodium berghei ANKA infected in BALB/c mouse assessed as parasitemia at 50 mg/kg, po administered twice daily for 4 days measured up to 14 days post infection by Giemsa-staining based microscopic analysis (reference value: 31 to 58%); assay type: functional
HFF = experiment: Cytotoxicity against HFF; assay type: cell-based; conditions: Homo sapiens
[6] = Cytotoxicity against mouse spleen cells; assay type: cell-based
[7] = Plasma concentration in Crl:NRMI mouse at 50 mg/kg, po administered via gavage measured after 180 mins by LC-MS/MS analysis; assay type: ADME, organism-based
[8] = Selectivity index, ratio of IC50 for mouse spleen cells to IC50 for asynchronous form of Plasmodium falciparum 3D7 infected in human erythrocytes; assay type: toxicity, cell-based; conditions: read-out: Ratio IC50
[9] = Plasma concentration in Crl:NRMI mouse at 50 mg/kg, po administered via gavage measured after 60 mins by LC-MS/MS analysis; assay type: ADME, organism-based
Plasmodium falciparum [10] = experiment: Antiplasmodial activity against Plasmodium falciparum Dd2 infected in human erythrocytes assessed as reduction in [3H]-hypoxanthine incorporation measured after 48 hrs by microbeta liquid scintillation counting method; assay type: functional, organism-based
[11] = molecular target: T2, Histone-lysine N-methyltransferase EHMT2 (Homo sapiens, UniProt Q96KQ7); experiment: Inhibition of recombinant human N-terminal GST-fused G9a (786 to 1210 residues) expressed in Escherichia coli using biotinylated H3 (1 to 21 residues) as substrate measured after 1 hr in presence of 3H-Adomet by filter binding assay
T2 sequence (Q96KQ7 whole entry): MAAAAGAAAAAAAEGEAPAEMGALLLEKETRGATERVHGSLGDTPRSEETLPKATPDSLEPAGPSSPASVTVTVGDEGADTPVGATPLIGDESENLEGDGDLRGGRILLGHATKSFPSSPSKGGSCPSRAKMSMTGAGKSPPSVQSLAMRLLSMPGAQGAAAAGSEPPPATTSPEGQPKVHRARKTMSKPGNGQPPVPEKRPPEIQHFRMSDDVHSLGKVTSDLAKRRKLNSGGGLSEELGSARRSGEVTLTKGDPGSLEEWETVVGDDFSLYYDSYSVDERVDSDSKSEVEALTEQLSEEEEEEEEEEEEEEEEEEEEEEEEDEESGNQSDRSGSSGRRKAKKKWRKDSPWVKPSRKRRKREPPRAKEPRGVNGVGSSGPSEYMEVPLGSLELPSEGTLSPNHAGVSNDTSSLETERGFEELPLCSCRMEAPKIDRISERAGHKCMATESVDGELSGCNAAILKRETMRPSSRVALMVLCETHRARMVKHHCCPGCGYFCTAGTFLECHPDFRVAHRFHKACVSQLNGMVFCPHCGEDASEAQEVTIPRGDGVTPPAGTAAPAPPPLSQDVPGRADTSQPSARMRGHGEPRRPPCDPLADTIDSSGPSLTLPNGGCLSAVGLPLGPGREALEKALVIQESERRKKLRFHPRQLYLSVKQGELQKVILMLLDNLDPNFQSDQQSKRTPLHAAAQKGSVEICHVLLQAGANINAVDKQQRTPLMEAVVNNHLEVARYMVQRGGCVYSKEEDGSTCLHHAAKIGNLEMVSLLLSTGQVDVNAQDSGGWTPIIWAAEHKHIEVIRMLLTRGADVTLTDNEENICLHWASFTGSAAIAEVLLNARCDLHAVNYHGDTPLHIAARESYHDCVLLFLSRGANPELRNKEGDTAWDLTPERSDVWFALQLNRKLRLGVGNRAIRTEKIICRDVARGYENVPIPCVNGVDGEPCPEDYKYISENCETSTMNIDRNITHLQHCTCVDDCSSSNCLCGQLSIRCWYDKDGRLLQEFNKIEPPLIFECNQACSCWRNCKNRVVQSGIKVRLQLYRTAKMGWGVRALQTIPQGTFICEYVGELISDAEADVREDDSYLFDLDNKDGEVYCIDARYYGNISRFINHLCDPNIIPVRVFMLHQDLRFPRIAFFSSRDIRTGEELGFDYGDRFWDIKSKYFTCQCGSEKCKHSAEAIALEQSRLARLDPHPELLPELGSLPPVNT

[12] = molecular target: DNA (cytosine-5)-methyltransferase 1 (Homo sapiens, UniProt P26358); experiment: Inhibition of recombinant human DNMT1 using biotinylated DNA duplex as substrate measured after 2 hrs in presence of Adomet/[methyl-3H]Adomet by topcount method
Chain of DNA (cytosine-5)-methyltransferase 1 (P26358 whole entry): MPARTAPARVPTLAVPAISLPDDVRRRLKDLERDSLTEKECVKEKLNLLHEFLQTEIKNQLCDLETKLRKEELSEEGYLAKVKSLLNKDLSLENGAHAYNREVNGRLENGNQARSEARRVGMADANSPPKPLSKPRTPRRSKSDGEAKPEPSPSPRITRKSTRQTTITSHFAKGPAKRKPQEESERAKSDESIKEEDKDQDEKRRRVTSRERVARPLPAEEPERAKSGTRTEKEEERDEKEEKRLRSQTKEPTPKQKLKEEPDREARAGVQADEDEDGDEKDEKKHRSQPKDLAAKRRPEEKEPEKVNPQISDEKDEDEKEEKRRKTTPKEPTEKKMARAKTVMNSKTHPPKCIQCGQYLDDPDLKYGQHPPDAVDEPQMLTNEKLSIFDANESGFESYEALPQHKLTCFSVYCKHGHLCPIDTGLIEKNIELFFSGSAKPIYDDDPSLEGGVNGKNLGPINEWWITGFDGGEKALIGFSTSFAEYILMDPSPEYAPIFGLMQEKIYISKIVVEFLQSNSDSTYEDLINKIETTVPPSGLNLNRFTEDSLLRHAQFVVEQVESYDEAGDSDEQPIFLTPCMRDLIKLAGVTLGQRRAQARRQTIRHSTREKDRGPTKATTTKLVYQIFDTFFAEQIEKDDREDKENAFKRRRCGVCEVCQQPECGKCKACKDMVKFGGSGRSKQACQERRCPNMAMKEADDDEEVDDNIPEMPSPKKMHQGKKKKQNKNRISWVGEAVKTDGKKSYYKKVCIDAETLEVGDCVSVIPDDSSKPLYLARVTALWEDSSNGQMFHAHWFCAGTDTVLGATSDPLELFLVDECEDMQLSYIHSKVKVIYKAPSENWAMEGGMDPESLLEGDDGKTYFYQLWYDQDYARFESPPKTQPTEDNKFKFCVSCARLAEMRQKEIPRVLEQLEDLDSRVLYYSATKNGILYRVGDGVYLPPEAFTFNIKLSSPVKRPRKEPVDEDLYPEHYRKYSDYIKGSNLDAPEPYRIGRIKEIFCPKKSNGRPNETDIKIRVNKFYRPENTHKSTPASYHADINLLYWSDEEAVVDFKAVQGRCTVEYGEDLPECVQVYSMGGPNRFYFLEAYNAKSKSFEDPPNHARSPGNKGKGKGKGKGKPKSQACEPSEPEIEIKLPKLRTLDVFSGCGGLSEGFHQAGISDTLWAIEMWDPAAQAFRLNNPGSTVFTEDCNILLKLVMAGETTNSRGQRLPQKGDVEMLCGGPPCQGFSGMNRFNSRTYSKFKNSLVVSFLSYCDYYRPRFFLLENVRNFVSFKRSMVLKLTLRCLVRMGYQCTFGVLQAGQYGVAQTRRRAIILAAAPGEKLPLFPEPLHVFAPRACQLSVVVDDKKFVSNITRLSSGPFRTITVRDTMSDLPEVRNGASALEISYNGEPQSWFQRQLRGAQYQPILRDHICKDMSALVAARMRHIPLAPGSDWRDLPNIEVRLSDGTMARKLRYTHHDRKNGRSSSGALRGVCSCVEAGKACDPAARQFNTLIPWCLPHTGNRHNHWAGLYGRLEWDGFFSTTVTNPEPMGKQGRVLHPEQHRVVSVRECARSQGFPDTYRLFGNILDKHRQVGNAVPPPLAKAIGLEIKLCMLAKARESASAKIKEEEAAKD

[13] = Acute toxicity in Crl:NRMI mouse assessed as death at 50 mg/kg, iv measured after 15 to 180 mins by LC-MS/MS analysis; assay type: organism-based; conditions: in vivo
[14] = molecular target: T1, DNA (cytosine-5)-methyltransferase 3A; experiment: Inhibition of recombinant human DNMT3a C-terminal catalytic domain (623 to 908 residues) using 5'-biotinylated/3'-FAM-oligonucleotide as substrate measured after 1 hr in presence of Adomet by fluorescence assay
[15] = Stability in phosphate buffered saline at pH 7.4 after 24 hrs by UV/RP-HPLC analysis; assay type: physicochemical; conditions: buffer, pH 7.4, 24 h
Plasmodium falciparum [16] = experiment: Antiplasmodial activity against asynchronous form of Plasmodium falciparum W2 infected in human erythrocytes assessed as parasite growth inhibition after 48 hrs by SYBR green1 staining based flow cytometry; assay type: functional, organism-based; conditions: W2, 48 h
Plasmodium berghei [17] = experiment: Antimalarial activity against Plasmodium berghei ANKA infected in BALB/c mouse assessed as reduction in parasitemia at 50 mg/kg, po administered twice daily for 4 days by Giemsa-staining based microscopic analysis; assay type: functional, organism-based
[18] = Plasma concentration in Crl:NRMI mouse at 50 mg/kg, po administered via gavage measured after 30 mins by LC-MS/MS analysis; assay type: ADME, organism-based

With `COc1cc2c(NCCNc3cccc4ccccc34)nc(N3CCN(c4ccccc4)CC3)nc2cc1OCc1ccccc1` the pIC50 (Plasmodium falciparum [1]) was 7.25, the inhibition [2] was 15% and the inhibition at 10 µM (Plasmodium falciparum [3]) was 99.6%.
For `CCN(CC)CCCC(C)Nc1ccnc2cc(Cl)ccc12` (stereo unspecified), the Activity (Plasmodium berghei [4]) was “Active”.
`COc1cc2c(NC3CCN(Cc4ccccc4)CC3)nc(N3CCN(c4ccccc4)CC3)nc2cc1O` gave an Activity (Plasmodium berghei [5]) of under 10%, a pIC50 (HFF) of 5.14 and a pIC50 [6] of 5.59. The concentration at 3 h [7] was 290 to 670 nM, the selectivity ratio [8] was 255 and the pIC50 (Plasmodium falciparum [1]) was 8.00. For the same compound, the concentration at 1 h [9] was 1040 to 3520 nM, the pIC50 (Plasmodium falciparum [10]) was 7.37 and the pEC50 [11] was under 4.00. For the same compound, the pEC50 [12] was under 4.00, the Activity [13] was “Toxic” and the pEC50 [14] was 5.21. For the same compound, the inhibition at 10 µM (Plasmodium falciparum [3]) was 100%, the Stability [15] was “Stable” and the pIC50 (Plasmodium falciparum [16]) was 7.73. For the same compound, the Activity (Plasmodium berghei [17]) was “Active” and the concentration at 0.5 h [18] was 3430 to 4570 nM.
In the case of `COc1ccc(CCN2CCC(Nc3nc(NCc4ccc(F)cc4)nc4ccccc34)CC2)cc1`, the pIC50 (Plasmodium falciparum [1]) was 7.47, the pEC50 [11] was 4.29 and the pEC50 [12] was under 4.00. The pEC50 [14] was 5.32 and the inhibition at 10 µM (Plasmodium falciparum [3]) was 100%.
